Data taken from patent publication US20220226357A1, “METHODS FOR TREATING NEURODEGENERATIVE DISORDERS” (THOMAS JEFFERSON UNIVERSITY, priority 2019, published 2022).
Entries after “also recorded” stand apart in the source; their conditions may differ. Marks after values point to notes of the source that are not given here.

Assays:
Type in all cases: in vivo
[1] = tested on: AAV-A53T α-synuclein rat model; experiment: Striatal dopamine and metabolite levels (UHPLC, electrochemical detection); conditions: for DA / DOPAC: striatum
Experimental: (§1) Institutional Animal Care and Use Committee and conducted in accordance with the National Institutes of Health Guide for the Care and Use of Laboratory Animals. Adult male Sprague-Dawley rats (Envigo), 250 to 300 g at the time of surgery, were housed three per cage with ad libitum access to food and water during a 12-hour light/dark cycle. All surgeries were performed under general anesthesia using a mixture of ketamine (100 mg/kg, i.p.) and xylazine (10 mg/kg, i.p.). Once animals were anesthetized, the head was shaved and surgically prepped with Betadine solution and alcohol before being placed in a Kopf stereotaxic frame with the incisor bar set at approximately 3.5 mm below horizontal zero to achieve a flat skull position. The skin on the top of the skull was cut along the midline and retracted. […] Following a 5 minute wait period after completion of the injection, the needle was slowly withdrawn, the skin wound was closed, and post-surgery analgesia (meloxicam 1 mg/kg) was administered. Some rats were randomly assigned to receive daily GM1 ganglioside (porcine brain derived GM1, 30 mg/kg, i.p., Qilu Pharmaceutical Co., Ltd.) or similar volume saline injections beginning 24 hours after AAV-A53T-synuclein surgery and lasting for 6 weeks (early start group). Other animals were randomly assigned to receive daily GM1 ganglioside (porcine brain derived GM1, 30 mg/kg, i.p., Qilu Pharmaceutical Co.) or similar volume saline injections beginning 3 weeks after AAV-A53T-synuclein surgery and lasting for 5 weeks (delayed start group). […] At the conclusion of the study, animals were euthanized, fresh brains were rapidly removed, and two to three striatal samples from both sides were dissected and immediately frozen for later analyses. The remainder of the brain (including the striatum beginning at the level of the decussation of the anterior commissure) was submersion fixed in 4% paraformaldehyde.
Striatal samples were sonicated cold in 0.4 M perchloric acid for 10 seconds and centrifuged at 13,000 rpm for 10 min at 4° C. The supernatant was removed and was diluted 1:4 with Milli-Q ultrapure water (resistivity 18.2 MΩ·cm) containing internal standard (isoproterenol, 4 ng). The diluted samples were centrifuged again at 13,000 rpm for 5 min at 4° C. Samples were kept on ice prior to loading into the refrigerated (4° C.) autosampler integrated with the HPLC system. An ALEXYS UHPLC system (Antec Scientific) with electrochemical detection (Decade Elite electrochemical detector with a glassy carbon electrode) was used for the analyses. […] The mobile phase (pH 3.0) consisted of 100 mM phosphoric acid, 100 mM citric acid, 0.1 mM EDTA.Na2, 600 mg/L octanesulfonic acid sodium salt, and 8% acetonitrile. Pump flow rate was 50 μl/min. The analytes were detected at an oxidation potential of 600 mV against a reference electrode at 0 mV. Data were acquired and processed using Clarity software (v7.4.1) (DataApex). Peak heights were compared against internal standard curves to determine the concentrations of DA and metabolites in each sample.

[2] = tested on: AAV-A53T α-synuclein rat model; experiment: Beclin-1 protein expression in the SN; conditions: 2 wks after AAV-A53T vector injection; N=8/grp
Source text: The pathological phenotype of various storage disorders comprises increased α-Syn accumulation and aggregation and this increased α-Syn accumulation and aggregation has been linked to lysosomal dyfunction. Also, DA neuron degeneration induced by excess α-Syn in AAV-A53T rats is linked to a progressive decline in autophagic activity and in markers of lysosome function.

[3] = tested on: AAV-A53T α-synuclein rat model; experiment: Insoluble pSer129 α-Syn immunofluorescence in SN after proteinase K; conditions: GM1 30 mg/kg/day i.p. for 2 wks, starting 24 hrs after AAV-A53T
Source text: However, GM1 administration may affect α-Syn phosphorylation and aggregation in vivo. Some studies have reported that in vitro, GM1 and α-Syn interact, resulting in an absence of fibril formation and an increase in helical folding propensity, resulting in GM1-mediated protection against aggregation. […] It was proposed herein that a mechanism that underlies the ability of GM1 to reduce α-Syn-related neurotoxicity is that GM1 administration reduces α-Syn phosphorylation and thus aggregation, and toxicity, in vivo. […] Beginning 24 hours after AAV administration, some animals received daily i.p. injections of saline and others received daily i.p. injections of GM1 (30 mg/kg). Animals were euthanized 2 weeks following initiation of saline or GM1 administration. Brains were subsequently sectioned and SN sections were treated with proteinase K and then processed for pSer129 α-Syn immunofluorescence.

[4] = tested on: AAV-A53T α-synuclein rat model; experiment: Immunohistochemistry of Ser129-phosphorylated α-synuclein in the SN; conditions: delayed start GM1; 8 weeks after AAV-A53T; not quantified
[5] = tested on: AAV-A53T α-synuclein rat model; experiment: Cylinder test of spontaneous forelimb use
Experimental: as §1
Forelimb use during explorative activity was analyzed using the cylinder test. The test apparatus consisted of a clear Plexiglass cylinder of approximately 33 cm diameter and 50 cm height placed in a dimly lit room in front of a mirror in order to visualize limb use from all angles. Each session was videotaped for later analysis by an observer blind to the animal's experimental group. The paw contralateral to the side of the AAV-A53T-α-synuclein injection was marked prior to the start of each test session to definitively determine laterality on videotapes. The test was performed in the late afternoon prior to the onset of the dark cycle. At each test session, the animal was gently placed in the cylinder and movements were videotaped for 10 minutes. Forelimb use was assessed by scoring weight-bearing contacts on the cylinder wall with the ipsilateral, contralateral (relative to the AAV-A53T-α-synuclein-injected side), and both paws. Twenty observations of the paw placements on the cylinder wall were scored. Limb placement on the wall was scored only if it occurred after the animal returned to a resting position and reared again to touch the cylinder wall. Percent ipsilateral (ipsi) and contralateral (contra) paw touches were calculated as [(ipsi+1/2 both)/total #observations]*100 and [(contra+1/2 both)/total #observations]*100, respectively. The cylinder test was performed prior to surgery (baseline) and at 3 and 6 weeks after surgery for the immediate start GM1 groups and at 3 and 8 weeks after surgery for the delayed start GM1 groups.

[6] = delayed start GM1, 8 weeks after AAV-A53T
[7] = early start GM1, 6 weeks after AAV-A53T
[8] = AAV-A53T/Early GM1, injected side
[9] = AAV-A53T/Early GM1, non-injected side

## GM1 ganglioside
[1]; [6]
  DOPAC levels on the injected side, % of non-injected side: 82.0±8.4%
  DOPAC/DA ratio on the injected side, % of contralateral side: 150.0±10.9%
  striatal DA levels on the injected side, % of contralateral side: 55.0±3.9%
[1]; [7]
  DOPAC/DA ratio on the injected side, % of contralateral side: 112.3±9.5%
  striatal DA levels on the injected side, % of contralateral side: 64.0±3.5%
[1]; AAV-A53T/Delayed GM1, injected side
  DA: 5.87 ± 0.47^b μg/g wet tissue
[1]; AAV-A53T/Delayed GM1, injected side, two outlier samples removed
  DOPAC: 0.93 ± 0.12^ μg/g wet tissue
[1]; AAV-A53T/Delayed GM1, non-injected side
  DA: 10.73 ± 0.54 μg/g wet tissue
[1]; AAV-A53T/Delayed GM1, non-injected side, two outlier samples removed
  DOPAC: 1.18 ± 0.10^ μg/g wet tissue
[1]; [8]
  DA: 7.29 ± 0.45^a μg/g wet tissue
  DOPAC: 0.85 ± 0.09 μg/g wet tissue
[1]; [9]
  DA: 11.43 ± 0.32 μg/g wet tissue
  DOPAC: 1.33 ± 0.10 μg/g wet tissue
[2]
  SN Beclin-1 protein expression, GM1 vs saline: reversed increased SN Beclin-1 levels; also recorded: significantly increased in saline-treated vs. GM1-treated animals
[3]
  insoluble pSer129 α-Syn-positive cells and pSer129 α-Syn per cell in the SN, GM1 vs saline: significantly fewer pSer129 α-Syn-positive cells and less pSer129 α-Syn per cell; also recorded: fewer SN neurons expressing insoluble pSer129 and decreased pSer129 expression per neuron
[4]
  Ser129-phosphorylated α-synuclein staining in the SN, GM1 vs saline: less intense cytoplasmic Ser129-phosphorylated α-synuclein staining and fewer/smaller nuclear aggregates; also recorded: more Ser129 phosphorylated α-synuclein staining in saline-treated animals compared to GM1-treated animals
[5]; delayed start GM1 30 mg/kg/day i.p. from week 3 for 5 weeks, week 8
  percent ipsilateral forelimb use: 61.5±2.7%
[5]; delayed start GM1 group, baseline (prior to surgery and GM1)
  percent ipsilateral limb use: 50.0±2.0%
[5]; delayed start GM1 group, week 3, just prior to receiving GM1
  percent ipsilateral forelimb use: 74.9±2.8%
[5]; early start GM1 30 mg/kg/day i.p. from 24 h after AAV-A53T, 3 weeks, mean±SEM
  percent ipsilateral limb use: 67.1±3.7%
[5]; early start GM1 30 mg/kg/day i.p. from 24 h after AAV-A53T, 6 weeks, mean±SEM
  percent ipsilateral limb use: 56.0±2.5%
[5]; early start GM1 group, baseline (prior to surgery and GM1), mean±SEM
  percent ipsilateral limb use: 50.1±1.8%
